In patent US9211296B2, “Therapeutic compounds for blocking DNA synthesis of POX viruses” (priority 2007, dated 2015):
Entries after “also recorded” stand apart in the source; their conditions may differ. Where two headings read alike, the source gives them in different places.

How the values were obtained:
vaccinia virus WR [1] = assay type: cell-based
[2] = Solubility in cell growth medium by light scattering; conditions: concentrations of the activity assays
Method: These 16 compounds were tested for cell protection and cytotoxicity over longer times (48 h and 72 h). […] The solubility of the 16 compounds was verified in cell growth medium over the range of concentrations used in the activity assays.

vaccinia virus WR [3] = test: microbe, parasite or virus in culture; assay type: cell-based; conditions: for EC50: Orthopoxvirus vaccinia
BS-C-1 cells = test: WST-1 cytotoxicity assay; conditions: for tox 20 h TC50 / tox 72 h TC50 / tox 120 h TC50: Table 6; for CC50: read-out: Cytotoxicity 20 h CC50, Table 4; for tox 20 h TC50 / CC50: 20 h
WST-1 cytotoxicity assay = conditions: African green monkey, BS-C-1 cells
[4] = molecular target: vaccinia virus DNA synthesis (viral DNA polymerase and its associated factors) (Vaccinia virus, UniProt P06856); assay type: biochemical
vaccinia virus WR [5] = test: microbe, parasite or virus in culture; assay type: cell-based; conditions: Orthopoxvirus vaccinia
[6] = molecular target: triad (A20, D4, E9) (Vaccinia virus (strain Western Reserve) (VACV) (Vaccinia virus (strain WR)), UniProt P06856); assay type: biochemical
[7] = molecular target: vaccinia triad (A20, D4, E9) (Vaccinia virus (strain Western Reserve) (VACV) (Vaccinia virus (strain WR)), UniProt P06856); assay type: biochemical
vaccinia virus [8] = test: microbe, parasite or virus in culture; assay type: cell-based; conditions: Orthopoxvirus vaccinia; for inhibition at 100 µM: BSC-1, 1 h, read-out: Inhibition of plaques
vaccinia virus [9] = assay type: cell-based
[10] = molecular target: vaccinia E9 polymerase (Vaccinia virus (strain Western Reserve) (VACV) (Vaccinia virus (strain WR)), UniProt P06856); assay type: biochemical
BSC-1 cells = conditions: 100 μM
in vitro = conditions: African green monkey
vaccinia virus [11] = test: microbe, parasite or virus in culture; conditions: Orthopoxvirus vaccinia, BSC-1, 16 h, read-out: Plaque IC50
[12] = aCella-TOX GAPDH release cytotoxicity assay (viridicatumtoxin study); conditions: African green monkey, BSC-1 cells
[13] = 20 h, read-out: Cell Protection 20 h EC50
[14] = BSC-1, 20 h, read-out: cell prot EC50
[15] = read-out: DNA Synthesis Inhibition IC50
[16] = 20 h, read-out: Plaque Reduction 20 h EC50
[17] = BSC-1, 20 h, read-out: plaque red EC50

For Cc1cc(OC(=O)c2ccco2)nc(SCc2c(Cl)cccc2Cl)n1 [Compound 8], the “Effect of dsDNA” value (vaccinia virus WR [1]) was “No”, the “trapped by dsDNA” value (vaccinia virus WR [1]) was “no” and the “Solubility in cell growth medium” value [2] was “just slightly insoluble at the EC50”. The “Selectivity Index SI” value (vaccinia virus WR [3]) was >2, the selectivity index (vaccinia virus WR [3]) was >2 and the EC50 (vaccinia virus WR [3]; [13]) was 100 µM. For the same molecule, the EC50 (vaccinia virus WR [3]; [14]) was 100 µM, the “tox 20 h TC50” value (BS-C-1 cells) was >100 µM and the “tox 72 h TC50” value (BS-C-1 cells) was >100 µM. The “tox 120 h TC50” value (BS-C-1 cells) was >100 µM, the CC50 at 20 h (WST-1 cytotoxicity assay) was > 200 µM and the IC50 [4, 15] was 52 µM. For the same molecule, the IC50 ([4]; read-out: DNA synth IC50) was 52 µM, the EC50 (vaccinia virus WR [5]; [16]) was 75 µM and the EC50 (vaccinia virus WR [5]; [17]) was 75 µM.
For CCS(=O)(=O)N1CCN=C1SCc1ccc(Cl)cc1Cl [Compound 10], the “Effect of dsDNA” value (vaccinia virus WR [1]) was “No”, the “trapped by dsDNA” value (vaccinia virus WR [1]) was “no” and the “Solubility in cell growth medium” value [2] was “just slightly insoluble at the EC50”. The EC50 (vaccinia virus WR [3]; [13]) was 90 µM, the EC50 (vaccinia virus WR [3]; [14]) was 90 µM and the “tox 20 h TC50” value (BS-C-1 cells) was 166 µM. For the same molecule, the CC50 (BS-C-1 cells) was 166 µM, the CC50 at 120 h (WST-1 cytotoxicity assay) was 25 µM and the IC50 [4, 15] was 188 µM. The IC50 ([4]; read-out: DNA synth IC50) was 188 µM, the EC50 (vaccinia virus WR [5]; [16]) was 25 µM and the EC50 (vaccinia virus WR [5]; [17]) was 25 µM.
In the case of N=C1S/C(=C/c2ccco2)C(=O)N1c1nccs1 [Compound 12], the “Effect of dsDNA” value (vaccinia virus WR [1]) is reported as “No”, the “trapped by dsDNA” value (vaccinia virus WR [1]) is reported as “no” and the “Solubility in cell growth medium” value [2] is reported as “just slightly insoluble at the EC50”. For the same molecule, the “Selectivity Index SI” value (vaccinia virus WR [3]) was >1.2, the selectivity index (vaccinia virus WR [3]) was >1.2 and the EC50 (vaccinia virus WR [3]; [13]) was 80 µM. The EC50 (vaccinia virus WR [3]; [14]) was 80 µM, the “tox 20 h TC50” value (BS-C-1 cells) was >100 µM and the “tox 72 h TC50” value (BS-C-1 cells) was >100 µM. For the same molecule, the “tox 120 h TC50” value (BS-C-1 cells) was 50 µM, the CC50 (BS-C-1 cells) was > 100 µM and the CC50 at 72 h (WST-1 cytotoxicity assay) was > 50 µM. The IC50 [4, 15] was 32 µM, the IC50 ([4]; read-out: DNA synth IC50) was 32 µM and the EC50 (vaccinia virus WR [5]; [16]) was 75 µM. The EC50 (vaccinia virus WR [5]; [17]) was 75 µM.
In the case of Oc1ccc(Cl)cc1Sc1cc(Cl)ccc1O [NSC 55636, 2,2′-thiobis(4-chlorophenol)], the “Effect on DNA synthesis by the triad on the distal template” value [6] is reported as “also blocked the distal template”, the “Effect on synthesis of M13 DNA” value [7] is reported as “blocked by increasing concentrations” and the inhibition at 100 µM (vaccinia virus [8]) is reported as 95%. The EC50 (vaccinia virus [8]; BSC-1, read-out: EC50 (concentration at which compound reduced plaques by 50%)) was 5 µM, the “Blocking the replication of vaccinia virus in cells” value (vaccinia virus [9]) was “effective in blocking the replication of vaccinia virus in cells” and the “Effect on E9 polymerase activity on the uniform template” value [10] was “prevented E9 from incorporating nucleotides on the uniform template; also recorded: inhibited the catalytic activity of E9 DNA polymerase; also recorded: blocked polymerase activity”. For the same molecule, the “Targeted Activity (% Inhibition): Polymerase” value [10] was “Polymerase (74%)”, the “Cell Cytotoxicity” value (BSC-1 cells) was 14% and the “Cell Cytotoxicity” value (BSC-1 cells; listed as 55636) was 14%. The CC50 (in vitro) was > 200 µM.
With CN(C)C1C(O)=C(C(N)=O)C(=O)C2(O)C(O)=C3C(=O)c4c(O)cccc4C(C)(O)C3CC12.CS(=O)(=O)O (stereo not shown) [NSC 69343, 4-(dimethylamino)-3,6,10,12,12a-pentahydroxy-6-methyl-1,11-dioxo-1,4,4a,5,5a,6,11,12a-octahydrotetracene-2-carboxamide methanesulfonate, reference compound] the IC50 (vaccinia virus [11]) was > 200 µM, the CC50 [12] was > 200 µM and the inhibition at 100 µM (vaccinia virus [8]) was 40%. The “Blocking the replication of vaccinia virus in cells” value (vaccinia virus [9]) was “effective in blocking the replication of vaccinia virus in cells” and the “Cell Cytotoxicity” value (BSC-1 cells; methanesulfonate) was 17%.
With O=C1CSC(=S)N1/N=C/c1ccc(Cl)c([N+](=O)[O-])c1 [NSC 124808] the “Effect on DNA synthesis by the triad on the distal template” value [6] was “prevented DNA synthesis by the triad on the distal template; also recorded: blocked incorporation on the distal template”, the “Targeted Activity (% Inhibition): Processivity” value [6] was “Processivity (62%)” and the “Effect on synthesis of M13 DNA” value [7] was “blocked by increasing concentrations”. The inhibition at 100 µM (vaccinia virus [8]) was 36%, the “Effect on E9 polymerase activity on the uniform template” value [10] was “not on the uniform template; also recorded: minimal effects” and the “Cell Cytotoxicity” value (BSC-1 cells) was 21%.
